{
  "source": "paper PMC3068608",
  "about": "(Journal of medicinal chemistry, 2011)",
  "key": {"human κ opioid receptor [1]": {"target": "T1, human κ opioid receptor (Homo sapiens, UniProt P41145)", "T1 sequence (P41145 whole entry)": "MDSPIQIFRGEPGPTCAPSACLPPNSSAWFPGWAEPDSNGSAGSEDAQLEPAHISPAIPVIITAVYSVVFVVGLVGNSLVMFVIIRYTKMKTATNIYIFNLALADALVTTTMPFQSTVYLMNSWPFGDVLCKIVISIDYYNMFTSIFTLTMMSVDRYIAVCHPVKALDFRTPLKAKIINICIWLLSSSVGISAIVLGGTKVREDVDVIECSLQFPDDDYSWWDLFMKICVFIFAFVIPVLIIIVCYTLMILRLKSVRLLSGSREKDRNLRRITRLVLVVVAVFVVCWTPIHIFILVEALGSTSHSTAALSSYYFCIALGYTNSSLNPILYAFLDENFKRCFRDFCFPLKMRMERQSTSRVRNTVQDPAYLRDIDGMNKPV", "assay": "[35S]GTPγS binding mediated by the κ opioid receptor, CHO membranes", "type": "biochemical", "settings": "for Emax ± SEM (% maximal stimulation): κ receptor, [35S]GTPγS"}, "human μ opioid receptor [2]": {"target": "T2, human μ opioid receptor (Homo sapiens, UniProt P35372)", "T2 sequence (P35372 whole entry)": "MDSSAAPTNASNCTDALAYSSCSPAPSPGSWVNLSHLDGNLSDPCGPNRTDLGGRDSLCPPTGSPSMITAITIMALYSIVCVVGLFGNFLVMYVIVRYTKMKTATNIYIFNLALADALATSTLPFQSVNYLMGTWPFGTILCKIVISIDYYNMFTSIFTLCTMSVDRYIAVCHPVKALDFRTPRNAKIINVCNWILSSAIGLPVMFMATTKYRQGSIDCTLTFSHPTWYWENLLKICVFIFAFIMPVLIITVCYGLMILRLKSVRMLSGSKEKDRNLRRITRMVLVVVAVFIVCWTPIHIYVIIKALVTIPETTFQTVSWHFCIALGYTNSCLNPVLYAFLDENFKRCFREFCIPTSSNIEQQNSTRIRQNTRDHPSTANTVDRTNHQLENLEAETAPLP", "assay": "[35S]GTPγS binding mediated by the μ opioid receptor, CHO membranes", "type": "biochemical", "settings": "for pharmacological properties / IC50: μ receptor; for pharmacological properties: [35S]GTPγS; for IC50: inhibition of binding stimulated by 200 nM DAMGO"}, "human κ opioid receptor [3]": {"target": "T1, human κ opioid receptor", "assay": "Opioid receptor binding, [3H]U69,593, CHO cell membranes", "settings": "for Selectivity σ/κ: ratio of Ki values (δ over κ); for Ki (nM) ± SEM [3H]U69,593 (κ): CHO membranes, human κ receptor, 25 °C"}, "human μ opioid receptor [4]": {"target": "T2, human μ opioid receptor", "assay": "Opioid receptor binding, [3H]DAMGO, CHO cell membranes", "settings": "for Ki (nM) ± SEM [3H]DAMGO (μ): CHO membranes, human μ receptor, 25 °C"}, "human δ opioid receptor [5]": {"target": "T3, human δ opioid receptor (Homo sapiens, UniProt P41143)", "T3 sequence (P41143 whole entry)": "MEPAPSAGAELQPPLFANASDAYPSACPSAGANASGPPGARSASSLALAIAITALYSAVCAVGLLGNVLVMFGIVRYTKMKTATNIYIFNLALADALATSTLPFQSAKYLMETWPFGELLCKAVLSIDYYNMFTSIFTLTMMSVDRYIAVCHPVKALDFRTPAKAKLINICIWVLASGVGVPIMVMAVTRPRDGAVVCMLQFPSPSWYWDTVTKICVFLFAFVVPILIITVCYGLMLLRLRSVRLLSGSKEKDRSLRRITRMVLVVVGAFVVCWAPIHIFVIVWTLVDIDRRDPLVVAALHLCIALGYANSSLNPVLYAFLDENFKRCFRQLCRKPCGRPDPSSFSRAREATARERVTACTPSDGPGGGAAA", "assay": "Opioid receptor binding, [3H]naltrindole, CHO cell membranes"}, "human κ opioid receptor [6]": {"target": "T1, human κ opioid receptor", "settings": "ratio of Ki values (δ over κ), literature compounds; ref [5c], [10c], [11]; cited from earlier work"}, "human δ opioid receptor [7]": {"target": "T3, human δ opioid receptor", "settings": "at 10 μM; ref [5c], [10c], [11]; cited from earlier work"}, "[8]": {"settings": "acute and chronic treatment; ref [7]; cited from earlier work"}, "human κ opioid receptor [9]": {"target": "T1, human κ opioid receptor", "settings": "[35S]GTPγS, ref [5c],[10c]; cited from earlier work"}, "human μ opioid receptor [10]": {"target": "T2, human μ opioid receptor", "settings": "[35S]GTPγS, ref [5c],[10c]; cited from earlier work"}},
  "note": "“Also recorded” adds a separate entry of the source. Read-outs that look alike come from different tables or passages of the source.",
  "data": [
    {"smiles": "CNc1nc2cc3c(cc2s1)C[C@@H]1[C@@H]2CCCC[C@]32CCN1CCCF", "note": "[13c, N′-Methyl-aminothiazolo[5,4-b]-N-fluoropropylmorphinan]", "values": [
      {"measurement": "EC50", "setting": "human κ opioid receptor [1]", "value": "120 ± 6.7", "unit": "nM"},
      {"measurement": "Emax ± SEM (% maximal stimulation)", "setting": "human κ opioid receptor [1]", "value": "higher Emax than that of selective agonist U50,488"},
      {"measurement": "EC50", "setting": "human μ opioid receptor [2]", "value": "420 ± 17", "unit": "nM"},
      {"measurement": "pharmacological properties", "setting": "human μ opioid receptor [2]", "value": "full agonist activity; also recorded: full agonists"},
      {"measurement": "IC50", "setting": "human μ opioid receptor [2]", "value": "> 10000", "unit": "nM"}
    ]},
    {"smiles": "FC(F)(F)CNc1nc2cc3c(cc2s1)C[C@@H]1[C@@H]2CCCC[C@]32CCN1CC1CC1", "note": "[compound 15, N′-Trifluoroethyl-aminothiazolo[5,4-b]-N-cyclopropylmethylmorphinan]", "values": [
      {"measurement": "Emax ± SEM (% maximal stimulation)", "setting": "human κ opioid receptor [1]", "value": "higher Emax than that of selective agonist U50,488"}
    ]},
    {"smiles": "c1c2c(cc3sc(N4CCNCC4)nc13)C[C@@H]1[C@@H]3CCCC[C@]23CCN1CC1CC1", "note": "[compound 28, N′-(Piperazin-1-yl)-thiazolo[5,4-b]-N-cyclopropylmethylmorphinan]", "values": [
      {"measurement": "Ki", "setting": "human κ opioid receptor [3]", "value": "110 ± 16", "unit": "nM"},
      {"measurement": "Selectivity μ/κ", "setting": "human κ opioid receptor [3]; ratio of Ki values", "value": 25},
      {"measurement": "Selectivity σ/κ", "setting": "human κ opioid receptor [3]", "value": ">91"},
      {"measurement": "Ki", "setting": "human μ opioid receptor [4]", "value": "2700 ± 320", "unit": "nM"},
      {"measurement": "Ki", "setting": "human δ opioid receptor [5]", "value": "> 10000", "unit": "nM"}
    ]},
    {"smiles": "CCNc1nc2cc3c(cc2s1)C[C@@H]1[C@@H]2CCCC[C@]32CCN1CCCF", "note": "[19c, N′-Ethyl-aminothiazolo[5,4-b]-N-fluoropropylmorphinan]", "values": [
      {"measurement": "Emax ± SEM (% maximal stimulation)", "setting": "human κ opioid receptor [1]", "value": "higher Emax than that of selective agonist U50,488"},
      {"measurement": "pharmacological properties", "setting": "human μ opioid receptor [2]", "value": "full agonist activity; also recorded: full agonists"},
      {"measurement": "IC50", "setting": "human μ opioid receptor [2]", "value": "> 10000", "unit": "nM"}
    ]},
    {"smiles": "CN(C)c1nc2cc3c(cc2s1)C[C@@H]1[C@@H]2CCCC[C@]32CCN1CC1CC1", "note": "[17a, N′, N′-Dimethyl-aminothiazolo[5,4-b]-N-cyclopropylmethylmorphinan]", "values": [
      {"measurement": "pharmacological properties", "setting": "human μ opioid receptor [2]", "value": "partial agonist activity"}
    ]},
    {"smiles": "CNc1nc2cc3c(cc2s1)C[C@@H]1[C@@H]2CCCC[C@]32CCN1CC1CC1", "note": "[13a, N′-Methylaminothiazolo[5,4-b]-N-cyclopropylmethylmorphinan]", "values": [
      {"measurement": "pharmacological properties", "setting": "human μ opioid receptor [2]", "value": "partial agonist activity; also recorded: partial agonists"}
    ]},
    {"smiles": "Nc1nc2cc3c(cc2o1)[C@@]12CCCC[C@H]1[C@@H](C3)N(CC1CC1)CC2", "note": "[compound 4]", "values": [
      {"measurement": "Selectivity σ/κ", "setting": "human κ opioid receptor [6]", "value": ">192"},
      {"measurement": "inhibition of [3H]Naltrindole (δ) binding", "setting": "human δ opioid receptor [7]", "value": 18, "unit": "% inh at 10 μM"}
    ]},
    {"smiles": "Nc1nc2cc3c(cc2s1)C[C@@H]1[C@@H]2CCCC[C@]32CCN1CCCF", "note": "[compound 11, Aminothiazolo[5,4-b]-N-fluoropropylmorphinan]", "values": [
      {"measurement": "pharmacological properties", "setting": "human μ opioid receptor [2]", "value": "partial agonist activity"}
    ]},
    {"smiles": "CN(C)c1nc2cc3c(cc2s1)C[C@@H]1[C@@H]2CCCC[C@]32CCN1CCCF", "note": "[17c, N′, N′-Dimethyl-aminothiazolo[5,4-b]-N-fluoropropylmethylmorphinan]", "values": [
      {"measurement": "Ki (nM) ± SEM [3H]U69,593 (κ)", "setting": "human κ opioid receptor [3]", "value": "low affinity"},
      {"measurement": "Ki (nM) ± SEM [3H]DAMGO (μ)", "setting": "human μ opioid receptor [4]", "value": "low affinity"}
    ]},
    {"smiles": "Oc1ccc2c(c1)[C@@]13CCCC[C@H]1[C@@H](C2)N(CC1CCC1)CC3", "note": "[butorphan]", "values": [
      {"measurement": "cocaine self-administration", "setting": "[8]", "value": "reduced cocaine self-administration dose-dependently"}
    ]},
    {"smiles": "c1ccc(Nc2nc3cc4c(cc3s2)C[C@@H]2[C@@H]3CCCC[C@]43CCN2CC2CC2)nc1", "note": "[compound 27, N′-(Pyridin-2-yl)-aminothiazolo[5,4-b]-N-cyclopropylmethylmorphinan]", "values": [
      {"measurement": "Selectivity σ/κ", "setting": "human κ opioid receptor [3]", "value": ">110"}
    ]},
    {"smiles": "Oc1ccc2c(c1)[C@@]13CCCC[C@H]1[C@@H](C2)N(CC1CC1)CC3", "note": "[compound 1, cyclorphan, reference compound]", "values": [
      {"measurement": "Emax ± SEM (% maximal stimulation)", "setting": "human κ opioid receptor [9]", "value": "90 ±10", "unit": "% maximal stimulation"},
      {"measurement": "cocaine self-administration", "setting": "[8]", "value": "reduced cocaine self-administration dose-dependently"},
      {"measurement": "pharmacological properties", "setting": "human μ opioid receptor [10]", "value": "Partial agonist"}
    ]},
    {"smiles": "CCNc1nc2cc3c(cc2s1)C[C@@H]1[C@@H]2CCCC[C@]32CCN1CC1CC1", "note": "[19a, N′-Ethyl-aminothiazolo[5,4-b]-N-cyclopropylmethylmorphinan]", "values": [
      {"measurement": "EC50", "setting": "human κ opioid receptor [1]", "value": "22 ± 5.1", "unit": "nM"},
      {"measurement": "Emax ± SEM (% maximal stimulation)", "setting": "human κ opioid receptor [1]", "value": "higher Emax than that of selective agonist U50,488"},
      {"measurement": "EC50", "setting": "human μ opioid receptor [2]", "value": "29 ± 4.6", "unit": "nM"},
      {"measurement": "pharmacological properties", "setting": "human μ opioid receptor [2]", "value": "full agonist activity; also recorded: full agonists"},
      {"measurement": "IC50", "setting": "human μ opioid receptor [2]", "value": "> 10000", "unit": "nM"}
    ]},
    {"smiles": "CCCNc1nc2cc3c(cc2s1)C[C@@H]1[C@@H]2CCCC[C@]32CCN1CCCF", "note": "[16c, N′-Propyl-aminothiazolo[5,4-b]-N-fluoropropylmorphinan]", "values": [
      {"measurement": "Ki (nM) ± SEM [3H]U69,593 (κ)", "setting": "human κ opioid receptor [3]", "value": "low affinity"},
      {"measurement": "Ki (nM) ± SEM [3H]DAMGO (μ)", "setting": "human μ opioid receptor [4]", "value": "low affinity"}
    ]},
    {"smiles": "Nc1nc2cc3c(cc2s1)C[C@@H]1[C@@H]2CCCC[C@]32CCN1C[C@@H]1CCCO1", "note": "[compound 12, Aminothiazolo[5,4-b]-N-(S)-tetrahydrofurylmethylmorphinan]", "values": [
      {"measurement": "pharmacological properties", "setting": "human μ opioid receptor [2]", "value": "full agonist activity; also recorded: full agonists"},
      {"measurement": "IC50", "setting": "human μ opioid receptor [2]", "value": "> 10000", "unit": "nM"}
    ]}
  ]
}
